{"source": "paper PMC11532494", "about": "(Nature Communications, 2024)", "key": {"[1]": {"molecular_target": "PA1409 (Pseudomonas aeruginosa, UniProt Q9I3T5)", "sequence (Q9I3T5 whole entry)": "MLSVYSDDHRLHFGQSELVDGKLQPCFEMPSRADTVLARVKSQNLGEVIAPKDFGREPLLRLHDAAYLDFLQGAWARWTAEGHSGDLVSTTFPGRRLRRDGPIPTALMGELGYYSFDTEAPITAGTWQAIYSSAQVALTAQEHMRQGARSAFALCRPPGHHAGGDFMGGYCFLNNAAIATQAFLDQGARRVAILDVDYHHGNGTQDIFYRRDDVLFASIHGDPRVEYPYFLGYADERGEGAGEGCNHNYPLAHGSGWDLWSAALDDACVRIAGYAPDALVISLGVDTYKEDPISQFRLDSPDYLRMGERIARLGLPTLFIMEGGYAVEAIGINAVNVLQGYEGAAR", "experiment": "Acetyl-polyamine deacetylase assay (positive control)", "assay_type": "biochemical", "conditions": "for [acetate] (individual samples): PA1409, acetate released from acetyl-polyamine substrate, Sample 1-2; for [acetate] mean: mean of samples"}, "[2]": {"molecular_target": "PsApaH (4) (Pseudomonas sp. M30-35, UniProt A0A1Y0KY79)", "sequence (A0A1Y0KY79 1-342 limits assumed)": "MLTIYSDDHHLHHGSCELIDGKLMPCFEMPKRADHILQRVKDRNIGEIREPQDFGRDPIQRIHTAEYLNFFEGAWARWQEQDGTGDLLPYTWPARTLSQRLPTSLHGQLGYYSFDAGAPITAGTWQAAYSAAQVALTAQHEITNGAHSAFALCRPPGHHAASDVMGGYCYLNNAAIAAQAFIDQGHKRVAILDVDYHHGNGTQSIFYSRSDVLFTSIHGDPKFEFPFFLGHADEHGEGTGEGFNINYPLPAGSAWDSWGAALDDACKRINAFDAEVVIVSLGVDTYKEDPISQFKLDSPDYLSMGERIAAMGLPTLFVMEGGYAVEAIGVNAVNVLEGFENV", "experiment": "Acetyl-polyamine deacetylase assay", "assay_type": "biochemical", "conditions": "for [acetate] (individual samples): acetate released from acetyl-polyamine substrate, Sample 1-3; for [acetate] mean: mean of samples"}}, "note": "Where “and” joins values, the source holds several entries; their conditions need not be identical. Equal values may be shown once."}
{"smiles": "CC(=O)NCCCCCN", "note": "[N1-acetylcadaverine]", "values": [{"measurement": "[acetate] (individual samples)", "setting": "[1]; time 5 min", "result": "3.7616 mM and 3.63 mM"}, {"measurement": "[acetate] (individual samples)", "setting": "[1]; time 10 min", "result": "14.5405 mM and 14.4965 mM"}, {"measurement": "[acetate] (individual samples)", "setting": "[1]; time 20 min", "result": "22.4156 mM and 22.0637 mM"}, {"measurement": "[acetate] (individual samples)", "setting": "[1]; time 45 min", "result": "23.2955 mM and 23.4715 mM"}, {"measurement": "[acetate] mean", "setting": "[1]; PA1409, time 5 min", "result": 3.696, "unit": "mM"}, {"measurement": "[acetate] mean", "setting": "[1]; PA1409, time 10 min", "result": 14.5185, "unit": "mM"}, {"measurement": "[acetate] mean", "setting": "[1]; PA1409, time 20 min", "result": 22.2396, "unit": "mM"}, {"measurement": "[acetate] mean", "setting": "[1]; PA1409, time 45 min", "result": 23.3835, "unit": "mM"}, {"measurement": "[acetate] (individual samples)", "setting": "[2]; time 5 min", "result": "2.228 mM and 2.337 mM and 2.011 mM"}, {"measurement": "[acetate] (individual samples)", "setting": "[2]; time 10 min", "result": "5.272 mM and 5.38 mM and 5.337 mM"}, {"measurement": "[acetate] (individual samples)", "setting": "[2]; time 20 min", "result": "7.446 mM and 7.663 mM and 8.054 mM"}, {"measurement": "[acetate] (individual samples)", "setting": "[2]; time 45 min", "result": "9.337 mM and 10.2283 mM and 9.967 mM"}, {"measurement": "[acetate] mean", "setting": "[2]; time 5 min", "result": 2.192, "unit": "mM"}, {"measurement": "[acetate] mean", "setting": "[2]; time 10 min", "result": 5.33, "unit": "mM"}, {"measurement": "[acetate] mean", "setting": "[2]; time 20 min", "result": 7.721, "unit": "mM"}, {"measurement": "[acetate] mean", "setting": "[2]; time 45 min", "result": 9.844, "unit": "mM"}]}
{"smiles": "CC(=O)NCCCCN", "note": "[N1-acetylputrescine]", "values": [{"measurement": "[acetate] (individual samples)", "setting": "[1]; time 5 min", "result": "2.66 mM and 2.46 mM"}, {"measurement": "[acetate] (individual samples)", "setting": "[1]; time 20 min", "result": "10.76 mM and 10.61 mM"}, {"measurement": "[acetate] (individual samples)", "setting": "[1]; time 45 min", "result": "15.78 mM and 16.29 mM"}, {"measurement": "[acetate] mean", "setting": "[1]; PA1409, time 5 min", "result": 2.56, "unit": "mM"}, {"measurement": "[acetate] mean", "setting": "[1]; PA1409, time 20 min", "result": 10.685, "unit": "mM"}, {"measurement": "[acetate] mean", "setting": "[1]; PA1409, time 45 min", "result": 16.035, "unit": "mM"}, {"measurement": "[acetate] (individual samples)", "setting": "[2]; time 5 min", "result": "1.6 mM (2×) and 2.1 mM"}, {"measurement": "[acetate] (individual samples)", "setting": "[2]; time 10 min", "result": "8.8 mM and 8.3 mM and 8 mM"}, {"measurement": "[acetate] (individual samples)", "setting": "[2]; time 20 min", "result": "12 mM and 13 mM and 12.2 mM"}, {"measurement": "[acetate] (individual samples)", "setting": "[2]; time 45 min", "result": "18 mM and 16.6 mM and 17.6 mM"}, {"measurement": "[acetate] mean", "setting": "[2]; time 5 min", "result": 1.767, "unit": "mM"}, {"measurement": "[acetate] mean", "setting": "[2]; time 10 min", "result": 8.367, "unit": "mM"}, {"measurement": "[acetate] mean", "setting": "[2]; time 20 min", "result": 12.4, "unit": "mM"}, {"measurement": "[acetate] mean", "setting": "[2]; time 45 min", "result": 17.4, "unit": "mM"}]}
{"smiles": "CC(=O)NCCCNCCCCN", "note": "[N1-acetylspermidine]", "values": [{"measurement": "[acetate] (individual samples)", "setting": "[1]; time 5 min", "result": "1.542 mM and 1.762 mM"}, {"measurement": "[acetate] (individual samples)", "setting": "[1]; time 10 min", "result": "8.1499 mM and 9.163 mM"}, {"measurement": "[acetate] (individual samples)", "setting": "[1]; time 20 min", "result": "14.4496 mM and 14.5817 mM"}, {"measurement": "[acetate] (individual samples)", "setting": "[1]; time 45 min", "result": "15.6831 mM and 14.9782 mM"}, {"measurement": "[acetate] mean", "setting": "[1]; PA1409, time 5 min", "result": 1.652, "unit": "mM"}, {"measurement": "[acetate] mean", "setting": "[1]; PA1409, time 10 min", "result": 8.657, "unit": "mM"}, {"measurement": "[acetate] mean", "setting": "[1]; PA1409, time 20 min", "result": 14.5156, "unit": "mM"}, {"measurement": "[acetate] mean", "setting": "[1]; PA1409, time 45 min", "result": 15.3306, "unit": "mM"}, {"measurement": "[acetate] (individual samples)", "setting": "[2]; time 5 min", "result": "0.06608 mM and 0.08811 mM"}, {"measurement": "[acetate] (individual samples)", "setting": "[2]; time 10 min", "result": "0.06608 mM and 0.1322 mM"}, {"measurement": "[acetate] (individual samples)", "setting": "[2]; time 20 min", "result": "0.3304 mM and 0.3084 mM"}, {"measurement": "[acetate] (individual samples)", "setting": "[2]; time 45 min", "result": "0.2643 mM and 0.3965 mM"}, {"measurement": "[acetate] mean", "setting": "[2]; time 5 min", "result": 0.07709, "unit": "mM"}, {"measurement": "[acetate] mean", "setting": "[2]; time 10 min", "result": 0.09912, "unit": "mM"}, {"measurement": "[acetate] mean", "setting": "[2]; time 20 min", "result": 0.3194, "unit": "mM"}, {"measurement": "[acetate] mean", "setting": "[2]; time 45 min", "result": 0.3304, "unit": "mM"}]}
{"smiles": "CC(=O)NCCCNCCCCNCCCN", "note": "[N1-acetylspermine]", "values": [{"measurement": "[acetate] (individual samples)", "setting": "[1]; time 5 min", "result": "4.758 mM and 5.242 mM"}, {"measurement": "[acetate] (individual samples)", "setting": "[1]; time 10 min", "result": "18.4144 mM and 18.3703 mM"}, {"measurement": "[acetate] (individual samples)", "setting": "[1]; time 20 min", "result": "24.4938 mM and 25.2427 mM"}, {"measurement": "[acetate] (individual samples)", "setting": "[1]; time 45 min", "result": "26.7845 mM and 27.0048 mM"}, {"measurement": "[acetate] mean", "setting": "[1]; PA1409, time 5 min", "result": 5, "unit": "mM"}, {"measurement": "[acetate] mean", "setting": "[1]; PA1409, time 10 min", "result": 18.3923, "unit": "mM"}, {"measurement": "[acetate] mean", "setting": "[1]; PA1409, time 20 min", "result": 24.8682, "unit": "mM"}, {"measurement": "[acetate] mean", "setting": "[1]; PA1409, time 45 min", "result": 26.8947, "unit": "mM"}, {"measurement": "[acetate] (individual samples)", "setting": "[2]; time 5 min", "result": "3.446 mM and 3.815 mM and 3.598 mM"}, {"measurement": "[acetate] (individual samples)", "setting": "[2]; time 10 min", "result": "5.9022 mM and 5.728 mM and 6.011 mM"}, {"measurement": "[acetate] (individual samples)", "setting": "[2]; time 20 min", "result": "8.6196 mM and 9.685 mM and 8.576 mM"}, {"measurement": "[acetate] (individual samples)", "setting": "[2]; time 45 min", "result": "12.6414 mM and 13.25 mM and 13.0327 mM"}, {"measurement": "[acetate] mean", "setting": "[2]; time 5 min", "result": 3.62, "unit": "mM"}, {"measurement": "[acetate] mean", "setting": "[2]; time 10 min", "result": 5.88, "unit": "mM"}, {"measurement": "[acetate] mean", "setting": "[2]; time 20 min", "result": 8.96, "unit": "mM"}, {"measurement": "[acetate] mean", "setting": "[2]; time 45 min", "result": 12.9747, "unit": "mM"}]}
{"smiles": "CC(=O)NCCCNCCCCNCCCN", "note": "[N1/N12-acetylspermine]", "values": [{"measurement": "[acetate] (individual samples)", "setting": "[1]; time 5 min", "result": "3.921 mM and 3.216 mM"}, {"measurement": "[acetate] (individual samples)", "setting": "[1]; time 10 min", "result": "19.1192 mM and 18.2382 mM"}, {"measurement": "[acetate] (individual samples)", "setting": "[1]; time 20 min", "result": "34.0974 mM and 33.8331 mM"}, {"measurement": "[acetate] (individual samples)", "setting": "[1]; time 45 min", "result": "42.3354 mM and 46.7408 mM"}, {"measurement": "[acetate] mean", "setting": "[1]; PA1409, time 5 min", "result": 3.568, "unit": "mM"}, {"measurement": "[acetate] mean", "setting": "[1]; PA1409, time 10 min", "result": 18.6787, "unit": "mM"}, {"measurement": "[acetate] mean", "setting": "[1]; PA1409, time 20 min", "result": 33.9653, "unit": "mM"}, {"measurement": "[acetate] mean", "setting": "[1]; PA1409, time 45 min", "result": 44.5381, "unit": "mM"}, {"measurement": "[acetate] (individual samples)", "setting": "[2]; time 5 min", "result": "2.337 mM and 2.446 mM and 2.554 mM"}, {"measurement": "[acetate] (individual samples)", "setting": "[2]; time 10 min", "result": "4.0761 mM and 4.1848 mM and 4.12 mM"}, {"measurement": "[acetate] (individual samples)", "setting": "[2]; time 20 min", "result": "7.467 mM and 7.707 mM and 7.62 mM"}, {"measurement": "[acetate] (individual samples)", "setting": "[2]; time 45 min", "result": "11.6196 mM and 12.1848 mM and 11.8587 mM"}, {"measurement": "[acetate] mean", "setting": "[2]; time 5 min", "result": 2.446, "unit": "mM"}, {"measurement": "[acetate] mean", "setting": "[2]; time 10 min", "result": 4.127, "unit": "mM"}, {"measurement": "[acetate] mean", "setting": "[2]; time 20 min", "result": 7.598, "unit": "mM"}, {"measurement": "[acetate] mean", "setting": "[2]; time 45 min", "result": 11.8877, "unit": "mM"}]}
{"smiles": "CC(=O)NCCCCNCCCN", "note": "[N8-acetylspermidine]", "values": [{"measurement": "[acetate] (individual samples)", "setting": "[1]; time 5 min", "result": "5.081 mM and 5.477 mM"}, {"measurement": "[acetate] (individual samples)", "setting": "[1]; time 10 min", "result": "19.9519 mM and 19.336 mM"}, {"measurement": "[acetate] (individual samples)", "setting": "[1]; time 20 min", "result": "23.7355 mM and 22.9876 mM"}, {"measurement": "[acetate] (individual samples)", "setting": "[1]; time 45 min", "result": "24.7914 mM and 25.3193 mM"}, {"measurement": "[acetate] mean", "setting": "[1]; PA1409, time 5 min", "result": 5.279, "unit": "mM"}, {"measurement": "[acetate] mean", "setting": "[1]; PA1409, time 10 min", "result": 19.6439, "unit": "mM"}, {"measurement": "[acetate] mean", "setting": "[1]; PA1409, time 20 min", "result": 23.3615, "unit": "mM"}, {"measurement": "[acetate] mean", "setting": "[1]; PA1409, time 45 min", "result": 25.0553, "unit": "mM"}, {"measurement": "[acetate] (individual samples)", "setting": "[2]; time 10 min", "result": "2.185 mM and 2.098 mM and 1.946 mM"}, {"measurement": "[acetate] (individual samples)", "setting": "[2]; time 20 min", "result": "3.446 mM and 3.4674 mM and 3.489 mM"}, {"measurement": "[acetate] (individual samples)", "setting": "[2]; time 45 min", "result": "4.967 mM and 5.12 mM (2×)"}, {"measurement": "[acetate] mean", "setting": "[2]; time 10 min", "result": 2.076, "unit": "mM"}, {"measurement": "[acetate] mean", "setting": "[2]; time 20 min", "result": 3.4674, "unit": "mM"}, {"measurement": "[acetate] mean", "setting": "[2]; time 45 min", "result": 5.069, "unit": "mM"}]}
